Results as given in publication PMC5218480 (PLoS ONE, 2017).

System: MV-4-11 cells
Assay: Gene expression microarray analysis (Affymetrix PrimeView) and GSEA
Type: cell-based, human
Parameters: RFU PODN (11730768_x_at) / Fold change /veh PODN (11730768_x_at) / RFU LINC00158 (11744669_a_at) / Fold change /veh LINC00158 (11744669_a_at) / RFU DUSP10 (11751237_a_at) / Fold change /veh DUSP10 (11751237_a_at) / RFU ID3 (11757404_x_at) / Fold change /veh ID3 (11757404_x_at) / RFU PLEKHG5 (11737974_s_at) / Fold change /veh PLEKHG5 (11737974_s_at) / RFU LRRC4B (11730491_at) / Fold change /veh LRRC4B (11730491_at) / RFU GIMAP4 (11747438_a_at) / Fold change /veh GIMAP4 (11747438_a_at) / RFU KRT8 (11758183_x_at) / Fold change /veh KRT8 (11758183_x_at) / RFU CNN1 (11734310_a_at) / Fold change /veh CNN1 (11734310_a_at) / RFU VPS37D (11726825_at) / Fold change /veh VPS37D (11726825_at) / RFU C10orf10 (11716522_x_at) / Fold change /veh C10orf10 (11716522_x_at) / RFU KIR2DL2 /// KIR2DL4 /// KIR2DL5A /// KIR2DL5B /// KIR2DS1 /// KIR2DS2 /// KIR2DS3 /// KIR2DS4 /// KIR3DL3 /// KIR3DL3 /// KIR3DS1 (11738374_at) / Fold change /veh KIR2DL2 /// KIR2DL4 /// KIR2DL5A /// KIR2DL5B /// KIR2DS1 /// KIR2DS2 /// KIR2DS3 /// KIR2DS4 /// KIR3DL3 /// KIR3DL3 /// KIR3DS1 (11738374_at) / RFU C1QL1 (11718748_at) / Fold change /veh C1QL1 (11718748_at) / RFU TMPRSS4 (11747572_a_at) / Fold change /veh TMPRSS4 (11747572_a_at) / RFU HAMP (11756126_x_at) / Fold change /veh HAMP (11756126_x_at) / RFU RNFT2 (11725882_a_at) / Fold change /veh RNFT2 (11725882_a_at) / RFU NR4A2 (11747474_a_at) / Fold change /veh NR4A2 (11747474_a_at) / RFU ABCC12 (11746883_a_at) / Fold change /veh ABCC12 (11746883_a_at) / RFU TMEM136 (11760407_x_at) / Fold change /veh TMEM136 (11760407_x_at) / RFU CLDN22 /// WWC2 (11732394_at) / Fold change /veh CLDN22 /// WWC2 (11732394_at) / RFU HLA-DPB1 (11760878_x_at) / Fold change /veh HLA-DPB1 (11760878_x_at) / RFU SPINT1 (11716480_a_at) / Fold change /veh SPINT1 (11716480_a_at) / RFU GAP43 (11754022_s_at) / Fold change /veh GAP43 (11754022_s_at) / RFU A4GNT (11735810_at) / Fold change /veh A4GNT (11735810_at) / RFU PRB3 (11715151_x_at) / Fold change /veh PRB3 (11715151_x_at) / RFU TUBB4B (11761932_at) / Fold change /veh TUBB4B (11761932_at) / RFU CAPN14 (11732068_a_at) / Fold change /veh CAPN14 (11732068_a_at) / RFU TMCC2 (11721928_a_at) / Fold change /veh TMCC2 (11721928_a_at) / RFU IRGQ (11745062_a_at) / Fold change /veh IRGQ (11745062_a_at) / RFU FAM174B (11720279_a_at) / Fold change /veh FAM174B (11720279_a_at) / RFU TMPRSS4 (11748680_a_at) / Fold change /veh TMPRSS4 (11748680_a_at) / RFU FAM212B (11763350_a_at) / Fold change /veh FAM212B (11763350_a_at) / RFU PLEKHG5 (11743358_a_at) / Fold change /veh PLEKHG5 (11743358_a_at) / RFU ZSCAN30 (11745921_a_at) / Fold change /veh ZSCAN30 (11745921_a_at) / RFU CMKLR1 (11741424_a_at) / Fold change /veh CMKLR1 (11741424_a_at) / RFU LOC101060620 /// MAPK8IP1 (11723275_at) / Fold change /veh LOC101060620 /// MAPK8IP1 (11723275_at) / RFU SPTSSB (11747773_x_at) / Fold change /veh SPTSSB (11747773_x_at) / RFU PRSS12 (11739890_at) / Fold change /veh PRSS12 (11739890_at) / RFU BIN1 (11741810_x_at) / Fold change /veh BIN1 (11741810_x_at) / RFU WNT11 (11732464_a_at) / Fold change /veh WNT11 (11732464_a_at) / RFU C10orf10 (11716521_a_at) / Fold change /veh C10orf10 (11716521_a_at) / RFU C5orf56 (11738089_at) / Fold change /veh C5orf56 (11738089_at) / RFU CYB561 (11721691_x_at) / Fold change /veh CYB561 (11721691_x_at) / RFU ANKRD19P (11752326_a_at) / Fold change /veh ANKRD19P (11752326_a_at) / RFU OR2T12 /// OR2T33 /// OR2T8 (11738714_s_at) / Fold change /veh OR2T12 /// OR2T33 /// OR2T8 (11738714_s_at) / RFU VCAN (11748164_a_at) / Fold change /veh VCAN (11748164_a_at) / RFU JSRP1 (11732532_at) / Fold change /veh JSRP1 (11732532_at) / RFU KRTAP10-11 (11738290_x_at) / Fold change /veh KRTAP10-11 (11738290_x_at) / RFU MYO3A (11730013_a_at) / Fold change /veh MYO3A (11730013_a_at) / RFU EBF3 (11725865_a_at) / Fold change /veh EBF3 (11725865_a_at) / RFU CAMK2N1 (11719241_x_at) / Fold change /veh CAMK2N1 (11719241_x_at) / RFU C5orf56 (11738088_a_at) / Fold change /veh C5orf56 (11738088_a_at) / RFU OLFML3 (11715873_a_at) / Fold change /veh OLFML3 (11715873_a_at) / RFU LOC100653217 /// NTM (11731650_a_at) / Fold change /veh LOC100653217 /// NTM (11731650_a_at) / RFU MAPK11 (11762145_a_at) / Fold change /veh MAPK11 (11762145_a_at) / RFU FIZ1 (11724087_x_at) / Fold change /veh FIZ1 (11724087_x_at) / RFU OASL (11726364_x_at) / Fold change /veh OASL (11726364_x_at) / RFU SOX15 (11748057_x_at) / Fold change /veh SOX15 (11748057_x_at) / RFU CD79A (11719716_a_at) / Fold change /veh CD79A (11719716_a_at) / RFU HIST1H1D (11736915_at) / Fold change /veh HIST1H1D (11736915_at) / RFU CASKIN2 (11723855_a_at) / Fold change /veh CASKIN2 (11723855_a_at) / RFU LOC730098 (11760151_x_at) / Fold change /veh LOC730098 (11760151_x_at) / RFU OR4N2 (11742367_at) / Fold change /veh OR4N2 (11742367_at) / RFU PRRT2 (11749266_a_at) / Fold change /veh PRRT2 (11749266_a_at) / RFU SNX32 (11753110_a_at) / Fold change /veh SNX32 (11753110_a_at) / RFU CDHR5 (11726645_a_at) / Fold change /veh CDHR5 (11726645_a_at) / RFU RCAN1 (11760418_a_at) / Fold change /veh RCAN1 (11760418_a_at) / RFU FAM167A (11723789_a_at) / Fold change /veh FAM167A (11723789_a_at) / RFU FAM26E (11764081_at) / Fold change /veh FAM26E (11764081_at) / RFU ISYNA1 (11749810_s_at) / Fold change /veh ISYNA1 (11749810_s_at) / RFU ACY1 (11761880_at) / Fold change /veh ACY1 (11761880_at) / RFU 11764098_at / Fold change /veh 11764098_at / RFU SAMD14 (11745864_x_at) / Fold change /veh SAMD14 (11745864_x_at) / RFU NPB (11741838_a_at) / Fold change /veh NPB (11741838_a_at) / RFU TMPRSS6 (11731388_a_at) / Fold change /veh TMPRSS6 (11731388_a_at) / RFU KRTAP10-2 (11738614_at) / Fold change /veh KRTAP10-2 (11738614_at) / RFU ARHGAP8 /// PRR5-ARHGAP8 (11727945_x_at) / Fold change /veh ARHGAP8 /// PRR5-ARHGAP8 (11727945_x_at) / RFU KRTAP5-7 /// NADSYN1 (11734609_at) / Fold change /veh KRTAP5-7 /// NADSYN1 (11734609_at) / RFU RASL12 (11751679_a_at) / Fold change /veh RASL12 (11751679_a_at) / RFU CDKN2B (11736163_a_at) / Fold change /veh CDKN2B (11736163_a_at) / RFU PRF1 (11729649_at) / Fold change /veh PRF1 (11729649_at) / RFU, ZNF638 /// ZNF638-IT1 / Fold change vs veh, ZNF638 /// ZNF638-IT1 / RFU, PANK3 / Fold change vs veh, PANK3 / RFU, SH3YL1 / Fold change vs veh, SH3YL1 / RFU, ZEB2 / Fold change vs veh, ZEB2 / RFU, NRIP1 / Fold change vs veh, NRIP1 / RFU, PTTG1IP / Fold change vs veh, PTTG1IP / RFU, CAPN2 / Fold change vs veh, CAPN2 / RFU, MED14 / Fold change vs veh, MED14 / RFU, SNORA58 / Fold change vs veh, SNORA58 / RFU, C1orf63 / Fold change vs veh, C1orf63 / RFU, LRRFIP1 / Fold change vs veh, LRRFIP1 / RFU, NDUFAF7 / Fold change vs veh, NDUFAF7 / RFU, SLC12A2 / Fold change vs veh, SLC12A2 / RFU, IBTK / Fold change vs veh, IBTK / RFU, ESF1 / Fold change vs veh, ESF1 / Fold change vs veh, TMEM50B / RFU, TAOK1 / Fold change vs veh, TAOK1 / RFU, ACBD3 / Fold change vs veh, ACBD3 / RFU, TMA16 / Fold change vs veh, TMA16 / RFU, RWDD3 / Fold change vs veh, RWDD3 / RFU, BCAT1 / Fold change vs veh, BCAT1 / RFU, EDEM3 / Fold change vs veh, EDEM3 / RFU, TMEM33 / Fold change vs veh, TMEM33 / RFU, WDR75 / Fold change vs veh, WDR75 / RFU, AHCTF1 / Fold change vs veh, AHCTF1 / RFU, TFRC / Fold change vs veh, TFRC / RFU, ZDHHC17 / Fold change vs veh, ZDHHC17 / RFU, NOM1 / Fold change vs veh, NOM1 / RFU, ARL8B / Fold change vs veh, ARL8B / RFU, ZBTB11 / Fold change vs veh, ZBTB11 / RFU, TAMM41 / Fold change vs veh, TAMM41 / RFU, KIAA1704 /// LOC100996395 / Fold change vs veh, KIAA1704 /// LOC100996395 / RFU, ING1 / Fold change vs veh, ING1 / RFU, TRMT61B / Fold change vs veh, TRMT61B / RFU, FUBP3 / Fold change vs veh, FUBP3 / RFU, TP53 / Fold change vs veh, TP53 / RFU, TNKS2 / Fold change vs veh, TNKS2 / RFU, ZFP14 / Fold change vs veh, ZFP14 / RFU, ACTR2 / Fold change vs veh, ACTR2 / RFU, PPP3R1 / Fold change vs veh, PPP3R1 / RFU, PIK3R1 / Fold change vs veh, PIK3R1 / RFU, HNRNPA1 / Fold change vs veh, HNRNPA1 / RFU, RNF170 / Fold change vs veh, RNF170 / RFU, ZNF28 / Fold change vs veh, ZNF28 / RFU, RNGTT / Fold change vs veh, RNGTT / RFU, OGT / Fold change vs veh, OGT / RFU, BRD1 / Fold change vs veh, BRD1 / RFU, MARS / Fold change vs veh, MARS / RFU, ZNF655 / Fold change vs veh, ZNF655 / RFU, FAHD1 / Fold change vs veh, FAHD1 / RFU, BDP1 / Fold change vs veh, BDP1 / RFU, LRRCC1 / Fold change vs veh, LRRCC1 / RFU, ARID1A / Fold change vs veh, ARID1A / RFU, ZNF146 / Fold change vs veh, ZNF146 / RFU, ZNF330 / Fold change vs veh, ZNF330 / RFU, GPN3 / Fold change vs veh, GPN3 / RFU, C9orf123 / Fold change vs veh, C9orf123 / RFU, N4BP2L2 / Fold change vs veh, N4BP2L2 / RFU, ARFIP1 / Fold change vs veh, ARFIP1 / RFU, FAM179B / Fold change vs veh, FAM179B / RFU, BCL10 / Fold change vs veh, BCL10 / RFU, UHRF1BP1L / Fold change vs veh, UHRF1BP1L / RFU, BET1 / Fold change vs veh, BET1 / RFU, CNOT2 / Fold change vs veh, CNOT2 / RFU, ZNF268 / Fold change vs veh, ZNF268 / Fold change vs veh, ZNF507 / RFU, DGCR2 / Fold change vs veh, DGCR2 / RFU, WDSUB1 / Fold change vs veh, WDSUB1 / Fold change vs veh, HSP90B1 /// MIR3652 / RFU, ADSS / Fold change vs veh, ADSS / RFU, GK / Fold change vs veh, GK / RFU, ZNF148 / Fold change vs veh, ZNF148 / RFU, TAF9 / Fold change vs veh, TAF9 / RFU, SLC1A5 / Fold change vs veh, SLC1A5 / RFU, SLMO2 / Fold change vs veh, SLMO2 / RFU, ABCC4 / Fold change vs veh, ABCC4 / RFU, LOC101060439 /// RAP1B / Fold change vs veh, LOC101060439 /// RAP1B / RFU, RFX7 / Fold change vs veh, RFX7 / RFU, GTPBP10 / Fold change vs veh, GTPBP10 / RFU, CNEP1R1 / Fold change vs veh, CNEP1R1 / RFU, BIVM-ERCC5 /// ERCC5 / Fold change vs veh, BIVM-ERCC5 /// ERCC5 / RFU, ILF3 / Fold change vs veh, ILF3 / RFU 11762660_at / Fold change /veh 11762660_at / RFU VCAN (11757783_s_at) / Fold change /veh VCAN (11757783_s_at) / RFU DDX43 (11728927_at) / Fold change /veh DDX43 (11728927_at) / RFU KRT8 (11758188_x_at) / Fold change /veh KRT8 (11758188_x_at) / RFU NKD1 (11759106_at) / Fold change /veh NKD1 (11759106_at) / RFU SRD5A1 (11742802_a_at) / Fold change /veh SRD5A1 (11742802_a_at) / RFU TPSAB1 /// TPSB2 (11721975_s_at) / Fold change /veh TPSAB1 /// TPSB2 (11721975_s_at) / RFU GSTM3 (11746129_a_at) / Fold change /veh GSTM3 (11746129_a_at) / RFU IL23R (11737362_x_at) / Fold change /veh IL23R (11737362_x_at) / RFU TMEM51 (11727254_a_at) / Fold change /veh TMEM51 (11727254_a_at) / RFU PIWIL2 (11732686_x_at) / Fold change /veh PIWIL2 (11732686_x_at) / RFU ORM1 (11744905_x_at) / Fold change /veh ORM1 (11744905_x_at) / RFU CCDC152 (11743942_at) / Fold change /veh CCDC152 (11743942_at) / RFU ECM1 (11717891_a_at) / Fold change /veh ECM1 (11717891_a_at) / RFU IL23R (11748794_a_at) / Fold change /veh IL23R (11748794_a_at) / RFU TNFAIP8L3 (11732012_x_at) / Fold change /veh TNFAIP8L3 (11732012_x_at) / RFU MBOAT4 (11741988_at) / Fold change /veh MBOAT4 (11741988_at) / RFU 11764193_at / Fold change /veh 11764193_at / RFU TMEM53 (11763286_at) / Fold change /veh TMEM53 (11763286_at) / RFU MAGEB2 (11727129_at) / Fold change /veh MAGEB2 (11727129_at) / RFU TMEM200A (11744735_a_at) / Fold change /veh TMEM200A (11744735_a_at) / RFU CCDC152 (11751479_a_at) / Fold change /veh CCDC152 (11751479_a_at) / RFU FAM211A (11726209_a_at) / Fold change /veh FAM211A (11726209_a_at) / RFU RGS16 (11746705_a_at) / Fold change /veh RGS16 (11746705_a_at) / RFU VCAN (11755009_s_at) / Fold change /veh VCAN (11755009_s_at) / RFU RHOB (11743442_s_at) / Fold change /veh RHOB (11743442_s_at) / RFU RGS16 (11720943_a_at) / Fold change /veh RGS16 (11720943_a_at) / RFU RGS16 (11720944_at) / Fold change /veh RGS16 (11720944_at) / RFU, VPS4B / Fold change vs veh, VPS4B / RFU, CREB1 / Fold change vs veh, CREB1 / RFU, DNAJC13 / Fold change vs veh, DNAJC13 / RFU, GNAQ / Fold change vs veh, GNAQ / RFU, CDK5R1 / Fold change vs veh, CDK5R1 / RFU, ZRANB3 / Fold change vs veh, ZRANB3 / RFU, CUL4A / Fold change vs veh, CUL4A / RFU, CCNY / Fold change vs veh, CCNY / RFU, UFL1 / Fold change vs veh, UFL1 / RFU, COG3 / Fold change vs veh, COG3 / RFU, DIAPH2 / Fold change vs veh, DIAPH2 / RFU, SKA2 / Fold change vs veh, SKA2 / RFU, AFF3 / Fold change vs veh, AFF3 / RFU, LMF1 / Fold change vs veh, LMF1 / RFU, IPO11 / Fold change vs veh, IPO11 / RFU, DFFB / Fold change vs veh, DFFB / RFU, FOXP1 / Fold change vs veh, FOXP1 / RFU, CARD8 / Fold change vs veh, CARD8 / RFU, STRN3 / Fold change vs veh, STRN3 / RFU, ADK / Fold change vs veh, ADK / RFU, RASSF2 / Fold change vs veh, RASSF2 / RFU, WIPF1 / Fold change vs veh, WIPF1 / RFU, LARP1B / Fold change vs veh, LARP1B / RFU, RASA1 / Fold change vs veh, RASA1 / RFU, RB1 / Fold change vs veh, RB1 / RFU, PPFIA1 / Fold change vs veh, PPFIA1 / RFU, MAT2A / Fold change vs veh, MAT2A / RFU, CCT5 / Fold change vs veh, CCT5 / RFU, WDR92 / Fold change vs veh, WDR92 / RFU, CUX1 / Fold change vs veh, CUX1 / RFU, TTC7A / Fold change vs veh, TTC7A / RFU, TMEM135 / Fold change vs veh, TMEM135 / RFU, DEPTOR / Fold change vs veh, DEPTOR / RFU, CPM / Fold change vs veh, CPM / RFU, DNAJB6 / Fold change vs veh, DNAJB6 / RFU, CACNA2D3 / Fold change vs veh, CACNA2D3 / RFU, DTX4 / Fold change vs veh, DTX4 / RFU, TFCP2 / Fold change vs veh, TFCP2 / RFU, GMCL1 /// GMCL1P1 / Fold change vs veh, GMCL1 /// GMCL1P1 / RFU, AEBP2 / Fold change vs veh, AEBP2 / RFU, SNHG1 /// SNORD22 /// SNORD25 /// SNORD26 /// SNORD27 /// SNORD28 /// SNORD29 /// SNORD31 / Fold change vs veh, SNHG1 /// SNORD22 /// SNORD25 /// SNORD26 /// SNORD27 /// SNORD28 /// SNORD29 /// SNORD31 / Fold change (Aza/veh), C12orf56 (ProbeSet 11735607_a_at) / Fold change (ACY-1035/veh), C12orf56 (ProbeSet 11735607_a_at) / Fold change (Aza/veh), FGFR1OP (ProbeSet 11751329_s_at) / Fold change (ACY-1035/veh), FGFR1OP (ProbeSet 11751329_s_at) / Fold change (Aza/veh), VPS36 (ProbeSet 11739960_a_at) / Fold change (ACY-1035/veh), VPS36 (ProbeSet 11739960_a_at) / RFU SYPL1 (11715823_x_at) / Fold change /veh SYPL1 (11715823_x_at) / RFU IGFBP7 (11715501_s_at) / Fold change /veh IGFBP7 (11715501_s_at) / RFU REEP3 (11722064_at) / Fold change /veh REEP3 (11722064_at) / RFU IGLL1 (11728026_x_at) / Fold change /veh IGLL1 (11728026_x_at): dose or concentration left out as unconfirmed
Conditions: MV-4-11 cells, 48 hours

Nc1ccc(-c2cccs2)cc1NC(=O)c1ccc2c(c1)cc(C1CC1)n2CCN1CCOCC1 [ACY-1035]
RFU CNN1 (11734310_a_at): 26.40 RFU
